How the values were obtained:
Format in all cases: cell-based, human
[1] = test system: hOB-01-C1-PS-09 cells; experiment: Hepatocyte growth factor (HGF) secretion by hOB-01-C1-PS-09 cells; details: 39° C.
[2] = test system: β-catenin; experiment: Western blot analysis for β-catenin; details: hOB-03-CE6 cells, 100 nM, 24 hr
Procedure: FIG. 15 is an autoradiogram of a Western blot of whole cell extracts isolated from hOB-03-CE6 cells treated with either control or PGE2 for 24 hr. The immunoblot was probed with a monoclonal antibody to β-catenin, which has a molecular weight of 92,000.
In order to determine if the up-regulation of SFRP-1/FRP-1/SARP-2 gene expression results in an antagonism of the Wnt signaling pathway, hOB-03-CE6 cells were treated with PGE2 and the resulting cells probed with β-catenin monoclonal antibody. Overexpression of Wnt proteins in cells up-regulates a signaling protein known as β-catenin (reviewed in Moon et al. 1997 Cell 88: 725–728; Barth et al. 1997 Curr. Opin. Cell Biol. 9: 683–690; and Nusse 1997 Cell 89: 321–323). […] Therefore, hOB-03-CE6 cells were plated and treated with PGE2 as described in Example 1, except that total cellular protein was extracted and a Western blot analysis for β-catenin was performed using a monoclonal antibody to the protein (Transduction Laboratories) as previously described (Bodine et al. 1996 Endocrinology 137: 4592–4604; Melkonyan et al. 1997 Proc. Natl. Acad. Sci. USA 94: 13636–13641). […] Both human and rat SFRP-1/FRP-1/SARP-2, as well as human Frzb-1/FrzB/Fritz, suppressed TCF-luciferase activity in the hOB cells.

[3] = test system: hOB-03-C5 cells; experiment: Apoptosis by flow cytometry using annexin V-FITC and propidium iodide
Procedure: Apoptosis was measured by flow cytometry using annexin V-FITC.
The hypothesis that up-regulation of SFRP-1/FRP-1/SARP-2 gene expression accelerates hOB cell death, while down-regulation of SFRP-1/FRP-1/SARP-2 gene expression suppresses cell death, was next examined. […] The next day, the 6-well plates were rinsed with PBS, placed in BSA-medium, and treated at 39° C. in the absence or presence of either 100 nM PGE2 (in order to up-regulate SFRP-1/FRP-1/SARP-2 steady-state mRNA levels; panels A & B), or 0.01–1.0 nM TGF-β1 (in order to down-regulate SFRP-1/FRP-1/SARP-2 message levels; panel C). Incubating cells in serum-free medium is a common method to induce apoptosis (Melkonyan et al. 1997 Proc. Natl. Acad. Sci. USA 94: 13636–13641), and the hOB-03-C5, hOB-03-CE6 and hOB-01-C1 cell lines all stopped dividing and gradually died under these conditions. […] In contrast, treatment of the hOB-01-C1 cells with TGF-β1 increased cell viability about 2-fold in a dose-dependent manner. […] This observation was consistent with the induction of apoptosis, which is known to result in cytoplasmic blebbing, the loss of water and a decrease in cell volume (Mesner and Kaufmann 1997 in Advances in Pharmacology, vol. 41, pp. 57–88). […] Finally, treatment of the hOB-03-C5 cells with PGE2 increased annexin V (a specific marker for apoptosis) binding to the cell as measured by flow cytometry (FIG. 11).

For “human transforming growth factor-β1 [TGF-β1]”, the HGF secretion [1] was “dose-dependent decrease”.
With `CCCCC[C@H](O)/C=C/[C@H]1[C@H](O)CC(=O)[C@@H]1C/C=C\CCCC(=O)O` [PGE2, prostaglandin E2] the β-catenin protein levels [2] was “down-regulated”, the “annexin V binding to the cell” value [3] was “increased” and the “number of apoptotic cells (annexin V but not propidium iodide)” value ([3]; increasing concentrations) was “increases”. For the same compound, the “number of necrotic cells (annexin V and propidium iodide)” value ([3]; increasing concentrations) was “increases” and the “number of viable cells (no annexin V or propidium iodide staining)” value ([3]; increasing concentrations) was “declines”.

Source: patent US7098372B1, “Pharmaceutical compositions and methods of using secreted frizzled related protein” (Wyeth, priority 1999, dated 2006)
